One test concerns HT-29 cells. The test is described as follows: Inhibition of HT-29 cell proliferation (CellTiter-Glo cell viability). Type of test: cell-based. As to conditions: Homo sapiens; HT-29 cells (TP53 R273H mutation), 120 hours culture with compound; read-out: IC50. As to the method:
Influences of the compounds of the present invention on HT-29 cell proliferation were determined by the following method. HT-29 cells (containing TP53 R273H mutation) were purchased from the Cell Bank of Shanghai Institute of Biochemistry and Cell Biology, Chinese Academy of Sciences, and cultured in a McCOY's 5A culture medium containing 10% fetal bovine serum, 100 U penicillin and 100 µg/mL streptomycin. A cell viability was determined by a CellTiter-Glo® Luminescent Cell Viability Assay kit (Promega, article number G7573).
(§1) An experimental method was operated according to steps in the instruction of the kit, which was briefly described as follows: a test compound was dissolved in DMSO first to prepare a 10 mM stock solution, then the stock solution was diluted with the culture medium to prepare a test sample, and a final concentration of the compound was in a range of 1000 nM-0.015 nM. Cells in a logarithmic growth phase were inoculated into a 96-well cell culture plate at a density of 1000 cells per well, cultured in a 5% CO2 incubator at 37°C overnight, and then the test compound was added to continuously culture for 120 hours. After the culture was ended, 50 uL of CellTiter-Glo detection solution was added to each well, shaken for 5 minutes, and then allowed to stand for 10 minutes, and subsequently, a luminance value of each well of the sample was read by a microplate reader in a Luminescence mode. By comparing with the numerical value of a control group (0.3% DMSO), a percentage inhibition rate of the compound at each concentration point was calculated, and then nonlinear regression analysis was carried out based on concentration logarithm-inhibition rate of the compound in GraphPad Prism 5 software, so as to obtain an IC50 value of the compound for inhibiting the cell proliferation, which was as shown in Table 2. Table 2 IC50 data of the compounds of the present invention for inhibiting HT-29 cell proliferation
(In general: ATP-based viability assays read luminescence as a measure of living cells.)

A further test has as its system OVCAR-3 cells. The test is described as follows: Inhibition of OVCAR-3 cell proliferation (CellTiter-Glo cell viability). Type of test: cell-based. As to conditions: Homo sapiens; OVCAR-3 cells (TP53 R248Q mutation), 72 hours culture with compound; read-out: IC50. As to the method: Influences of the compounds of the present invention on OVCAR-3 cell proliferation were determined by the following method. OVCAR-3 cells (containing TP53 R248Q mutation) were purchased from the Cell Bank of Shanghai Institute of Biochemistry and Cell Biology, Chinese Academy of Sciences, and cultured in an RPMI 1640 culture medium containing 10% fetal bovine serum, 100 U penicillin and 100 µg/mL streptomycin. A cell viability was determined by a CellTiter-Glo® Luminescent Cell Viability Assay kit (Promega, article number G7573).
as §1, with “for 72” for “for 120”, “each well ,” for “each well,”, “Table 1.” for “Table 2.”, “Table 1” for “Table 2”, “inhibiting OVCAR-3” for “inhibiting HT-29”

Structures are written as SMILES.

For the compound `CCS(=O)(=O)Nc1ccc(C(=O)Nc2ccc(C(=O)NC)c(N3CCC(F)(F)CC3)c2)c(N2CCC3(CC2)CC3)c1` [Example 3, 2-(4,4-difluoropiperidin-1-yl)-4-(4-(ethylsulfonamido)-2-(6-azaspiro[2.5]octan-6-yl)benzamido)-N-methylbenzamide], the IC50 (usually the midpoint of a concentration-inhibition curve) stood at 4 nM in the test on HT-29 cells and 3.7 nM in the test on OVCAR-3 cells.
Turning to `CCS(=O)(=O)Nc1ccc(C(=O)Nc2ccc(Oc3ccccn3)c(N3CCC(F)(F)CC3)c2)c(N2CCC3(CC2)CC3)c1` [Example 55, N-(3-(4,4-difluoropiperidin-1-yl)-4-(pyridin-2-yloxy)phenyl) -4-(ethylsulfonamido)-2-(6-azaspiro[2.5]octan-6-yl)benzamide], the IC50 in the test with OVCAR-3 cells stood at 44.7 nM.
Consider `CCS(=O)(=O)Nc1ccc(C(=O)Nc2ccc(-n3ccnc3)c(C3=CCC(F)(F)CC3)c2)c(N2CCC3(CC2)CC3)c1` [Example 22, N-(4',4'-difluoro-6-(1H-imidazol-1-yl)-2',3',4',5'-tetrahydro-[1,1'-biphenyl]-3-yl)-4-(ethylsulfonamido)-2-(6-azaspiro[2. 5]octan-6-yl)benzamide], for which the IC50 in the test with HT-29 cells is 16.8 nM; in the test with OVCAR-3 cells, 19.9 nM.
Take `CCS(=O)(=O)Nc1ccc(C(=O)Nc2ccc(-c3ccncc3)c(N3CCC(F)(F)CC3)c2)c(N2CCC3(CC2)CC3)c1` [Example 8, N-(3-(4,4-difluoropiperidin-1-yl)-4-(pyridin-4-yl)phenyl)-4-(ethylsulfonamido)-2-(6-azaspiro[2.5]octan-6-yl)benzamide]: the IC50 in the test on OVCAR-3 cells is 21.2 nM.
As to `CCS(=O)(=O)Nc1ccc(C(=O)Nc2ccc(-c3ccon3)c(N3CCC(F)(F)CC3)c2)c(N2CCC3(CC2)CC3)c1` [Example 36, N-(3-(4,4-difluoropiperidin-1-yl)-4-(isoxazol-3-yl)phenyl)-4-(ethylsulfonamido)-2-(6-azaspiro[2.5]octan-6-yl)benzamide], the IC50 worked out at 9.3 nM with HT-29 cells and 11.1 nM with OVCAR-3 cells.
With `CCS(=O)(=O)Nc1ccc(C(=O)Nc2ccc(-c3ncn(C)n3)c(NC3CC(F)(F)C3)c2)c(N2CCC3(CC2)CC3)c1` [Example 54, N-(3-((3,3-difluorocyclobutyl)amino)-4-(1-methyl-1H-1,2,4-triazol-3-yl)phenyl)-4-(ethylsulfonamido)-2-(6-azaspiro[2.5]octan-6-yl)benzamide], the IC50 in the test with OVCAR-3 cells was 38.9 nM.
For `CCS(=O)(=O)Nc1ccc(C(=O)Nc2ccc(-n3ccnc3)c(OC3CC(F)(F)C3)c2)c(N2CCC3(CC2)CC3)c1` [Example 24, N-(3-(3,3-difluorocyclobutoxy)-4-(1H-imidazol-1-yl)phenyl) -4-(ethylsulfonamido)-2-(6-azaspiro[2.5]octan-6-yl)benzamide], the IC50 in the test with OVCAR-3 cells was found to be 17.6 nM.
In the case of `CCS(=O)(=O)Nc1ccc(C(=O)Nc2ccc(C(N)=O)c(N3CCC(F)(F)CC3)c2)c(N2CCC3(CC2)CC3)c1` [Example 1, N-(4-carbamoyl-3-(4,4-difluor opiperidin-1-yl)phenyl)-4-(ethylsulfonamido)-2-(6-azaspiro[2.5]octan-6-yl)benzamide], the figures for the IC50 in the test with HT-29 cells and in the test with OVCAR-3 cells were 10.2 nM and 16.5 nM, respectively.
As to `CCS(=O)(=O)Nc1ccc(C(=O)Nc2ccc(-c3ncnn3C)c(N3CCC(F)(F)CC3)c2)c(N2CCC3(CC2)CC3)c1` [Example 38, N-(3-(4,4-difluoropiperidin-1-yl)-4-(1-methyl-1H-1,2,4-triazol-5-yl)phenyl)-4-(ethylsulfon amido)-2-(6-azaspiro[2.5]octan-6-yl)benzamide], in the test with OVCAR-3 cells, the IC50 was found to be 27.1 nM.
`O=C(Nc1ccc(-n2ccnn2)c(N2CCC(F)(F)CC2)c1)c1ccc(NS(=O)(=O)C2CC2)cc1N1CCC2(CC1)CC2` [Example 32, 4-(cyclopropanesulfonamido)-N-(3-(4,4-difluoropiperidin-1-yl)-4-(1H-1,2,3-triazol-1-yl)phenyl)-2-(6-azaspiro[2.5]octan-6-yl)benzamide]: the IC50 in the test with HT-29 cells amounted to 4.7 nM; in the test on OVCAR-3 cells it was 5.9 nM.
In the case of `CCS(=O)(=O)Nc1ccc(C(=O)Nc2ccc(-c3ncco3)c(OC3CC(F)(F)C3)c2)c(N2CCC3(CC2)CC3)c1` [Example 23, N-(3-(3,3-difluorocyclobutoxy)-4-(oxazol-2-yl)phenyl)-4-(ethylsulfonamido)-2-(6-azaspiro [2.5]octan-6-yl)benzamide], the IC50 with OVCAR-3 cells amounted to 51.3 nM.
Regarding `[2H]C([2H])([2H])Oc1ccc(NC(=O)c2ccc(NS(=O)(=O)CC)cc2N2CCC3(CC2)CC3)cc1N1CCC(F)(F)CC1` [Example 57, N-(3-(4,4-difluoropiperidin-1-yl)-4-(methoxy-d3)phenyl)-4-(ethylsulfonamido)-2-(6-azaspiro[2.5]octan-6-yl)benzamide], the IC50 with HT-29 cells is 4.5 nM; in the test on OVCAR-3 cells, 8.7 nM.
On the same counts, the results for `CCS(=O)(=O)Nc1ccc(C(=O)Nc2ccc(-c3nnco3)c(N3CCC(F)(F)CC3)c2)c(N2CCC3(CC2)CC3)c1` [Example 40, N-(3-(4,4-difluoropiperidin-1-yl)-4-(1,3,4-oxadiazol-2-yl)phenyl)-4-(ethylsulfonamido)-2-(6-azaspiro[2.5]octan-6-yl)benz amide] are 8.2 nM and 6 nM.
As to `CCS(=O)(=O)Nc1ccc(C(=O)Nc2ccc(C(=O)N(C)C)c(N3CCC(F)(F)CC3)c2)c(N2CCC3(CC2)CC3)c1` [Example 4, 2-(4,4-difluoropiperidin-1-yl)-4-(4-(ethylsulfonamido)-2-(6-azaspiro[2.5]octan-6-yl)benzamido)-N,N-dimethylbenzamide], the IC50 in the test with OVCAR-3 cells is 18.9 nM.
For `CCS(=O)(=O)Nc1ccc(C(=O)Nc2ccc(-c3ccccn3)c(N3CCC(F)(F)CC3)c2)c(N2CCC3(CC2)CC3)c1` [Example 10, N-(3-(4,4-difluoropiperidin-1-yl)-4-(pyridin-2-yl)phenyl)-4-(ethylsulfonamido)-2-(6-azaspiro[2.5]octan-6-yl)benzamide], the IC50 in the test with HT-29 cells was 27.1 nM; with OVCAR-3 cells it was 17.3 nM.
As to `CCS(=O)(=O)Nc1ccc(C(=O)Nc2ccc(C(C)=O)c(N3CCC(F)(F)CC3)c2)c(N2CCC3(CC2)CC3)c1` [Example 5, N-(4-acetyl-3-(4,4-difluoropiperidin-1-yl)phenyl)-4-(ethylsulfonamido)-2-(6-azaspiro[2.5]octan-6-yl)benzamide], the IC50 in the test on OVCAR-3 cells amounted to 33.1 nM.
On to `CCS(=O)(=O)Nc1ccc(C(=O)Nc2ccc(-c3ncco3)c(N3CCC(F)(F)CC3)c2)c(N2CCC3(CC2)CC3)c1` [Example 7, N-(3-(4,4-difluoropiperidin-1-yl)-4-(oxazol-2-yl)phenyl)-4-(ethylsulfonamido)-2-(6-azaspiro[2.5]octan-6-yl)benzamide], for which the values for the IC50 with HT-29 cells and in the test on OVCAR-3 cells were 18.3 nM and 11.1 nM, respectively.
On the same counts, the results for `CCS(=O)(=O)Nc1ccc(C(=O)Nc2ccc(CO)c(N3CCC(F)(F)CC3)c2)c(N2CCC3(CC2)CC3)c1` [Example 6, N-(3-(4,4-difluoropiperidin-1-yl)-4-(hydroxymethyl)phenyl)-4-(ethylsulfonamido)-2-(6-azaspiro[2.5]octan-6-yl)benzamide] are 13.3 nM and 11.1 nM.
On the same counts, the results for `CCS(=O)(=O)Nc1ccc(C(=O)Nc2ccc(-c3cccnc3)c(N3CCC(F)(F)CC3)c2)c(N2CCC3(CC2)CC3)c1` [Example 9, N-(3-(4,4-difluoropiperidin-1-yl)-4-(pyridin-3-yl)phenyl)-4-(ethylsulfonamido)-2-(6-azaspiro[2.5]octan-6-yl)benzamide] are 14.5 nM and 15.2 nM.
On the same counts, the results for `CCS(=O)(=O)Nc1ccc(C(=O)Nc2ccc(-c3cnccn3)c(N3CCC(F)(F)CC3)c2)c(N2CCC3(CC2)CC3)c1` [Example 11, N-(3-(4,4-difluoropiperidin-1-yl)-4-(pyrazin-2-yl)phenyl)-4-(ethylsulfonamido)-2-(6-azaspiro[2.5]octan-6-yl)benzamide] are 16.3 nM and 17.7 nM.
